Data on 19 compounds can be found in US3978045A, “N^2 -dansyl-L-arginine derivatives, and the pharmaceutically acceptable acid addition salts thereof” (priority 1973, dated 1976).

Counter-ions that a name gives are not always drawn.

The target in this assay is T1, thrombin (Bos taurus, UniProt P00735).
T1 construct: mature alpha-thrombin (light plus heavy chain) cut from prothrombin
Nature of the assay: Fibrinogen coagulation time (thrombin-induced clotting of fibrinogen). Type of assay: biochemical. Particulars: bovine fibrinogen, borate saline buffer pH 7.4, thrombin 0.1 ml of 5 units/ml, 25°C; control coagulation time 50-55 seconds; read-out: Concentration required to prolong the coagulation time by a factor of 2. The procedure: The antithrombotic activities of the N^2 -dansyl-L-arginine derivatives of this invention were compared with those of a known antithrombotic agent, (N^2 -(p-tolylsulfonyl)-L-arginine methyl ester). by determining the fibrinogen coagulation time. The measurement of the fibrinogen coagulation time was conducted as follows:
Immediately after mixing, the reaction mixture was transferred from the ice bath to a bath thermostated at 25°C. Coagulation times were taken as the period between the time of transference to the 25°C bath and the time of the first appearance of fibrin threads.
The term "concentration required to prolong the coagulation time by a factor of two" is the concentration of an active ingredient required to prolong the normal coagulation time 50-55 seconds to 100-110 seconds.
On to `CCOC(=O)[C@H](CCCNC(=N)N)NS(=O)(=O)c1cccc2c(N(C)C)cccc12` [Sample 2, N^2 -dansyl-L-arginine ethyl ester dihydrochloride], for which the IC (2-fold clotting time) came to 8 µM.

Consider `CCCOC(=O)[C@H](CCCNC(=N)N)NS(=O)(=O)c1cccc2c(N(C)C)cccc12` [Sample 3, N^2 -dansyl-L-arginine n-propyl ester], for which the IC (2-fold clotting time) is 2 µM.

As for `CC(C)OC(=O)[C@H](CCCNC(=N)N)NS(=O)(=O)c1cccc2c(N(C)C)cccc12` [Sample 4, N^2 -dansyl-L-arginine isopropyl ester dihydrochloride], the IC (2-fold clotting time) was 30 µM.

On to `CC(C)COC(=O)[C@H](CCCNC(=N)N)NS(=O)(=O)c1cccc2c(N(C)C)cccc12` [Sample 6, N^2 -dansyl-L-arginineisobutyl ester di(p-toluene sulfonate)], for which the IC (2-fold clotting time) came to 110 µM.

In the case of `CC=CCOC(=O)[C@H](CCCNC(=N)N)NS(=O)(=O)c1cccc2c(N(C)C)cccc12` [Sample 12, N^2 -dansyl-L-arginine crotyl ester], the IC (2-fold clotting time) came to 2 µM.

`C#CCCOC(=O)[C@H](CCCNC(=N)N)NS(=O)(=O)c1cccc2c(N(C)C)cccc12` [Sample 13, N^2-dansyl-L-arginine 3-butynyl ester]: the IC (2-fold clotting time) was determined as 4 µM.

In the case of `CN(C)c1cccc2c(S(=O)(=O)N[C@@H](CCCNC(=N)N)C(=O)OC3CCCCC3)cccc12` [Sample 14], the IC (2-fold clotting time) turned out to be 60 µM.

Regarding `CN(C)c1cccc2c(S(=O)(=O)N[C@@H](CCCNC(=N)N)C(=O)OCC3CCCO3)cccc12` (stereo partly shown) [Sample 15], the IC (2-fold clotting time) was 20 µM.

Regarding `COCCOC(=O)[C@H](CCCNC(=N)N)NS(=O)(=O)c1cccc2c(N(C)C)cccc12` [Sample 16, N^2-dansyl-L-arginine 2-methoxyethyl ester], the IC (2-fold clotting time) stood at 5 µM.

For the compound `CN(C)c1cccc2c(S(=O)(=O)N[C@@H](CCCNC(=N)N)C(=O)OCCCCCl)cccc12` [Sample 18, N^2-dansyl-L-arginine 4-chlorobutyl ester], the IC (2-fold clotting time) is 7 µM.

`CCC(COC(=O)[C@H](CCCNC(=N)N)NS(=O)(=O)c1cccc2c(N(C)C)cccc12)[N+](=O)[O-]` (stereo partly shown) [Sample 19]: the IC (2-fold clotting time) stood at 200 µM.

For `CCNC(=O)[C@H](CCCNC(=N)N)NS(=O)(=O)c1cccc2c(N(C)C)cccc12` [Sample 20, N^2 -dansyl-N-ethyl-L-argininamide monohydrate], the IC (2-fold clotting time) was determined as 100 µM.

`CCCNC(=O)[C@H](CCCNC(=N)N)NS(=O)(=O)c1cccc2c(N(C)C)cccc12` [Sample 21, N^2 -dansyl-N-(n-propyl)-L-argininamide monohydrate]: the IC (2-fold clotting time) worked out at 15 µM.

As to `CCCCNC(=O)[C@H](CCCNC(=N)N)NS(=O)(=O)c1cccc2c(N(C)C)cccc12` [Sample 22, N^2 -dansyl-N-(n-butyl)-L-argininamide monohydrate], the IC (2-fold clotting time) was found to be 25 µM.

As for `CCCCCNC(=O)[C@H](CCCNC(=N)N)NS(=O)(=O)c1cccc2c(N(C)C)cccc12` [Sample 23], the IC (2-fold clotting time) came out at 125 µM.

Take `CCCCCCNC(=O)[C@H](CCCNC(=N)N)NS(=O)(=O)c1cccc2c(N(C)C)cccc12` [Sample 24, N^2 -dansyl-N-(n-hexyl)-L-argininamide monohydrate]: the IC (2-fold clotting time) came out at 20 µM.

As for `CCCCCCCNC(=O)[C@H](CCCNC(=N)N)NS(=O)(=O)c1cccc2c(N(C)C)cccc12` [Sample 25, N^2 -dansyl-N-(n-heptyl)-L-argininamide], the IC (2-fold clotting time) worked out at 100 µM.

Consider `CC(C)NC(=O)[C@H](CCCNC(=N)N)NS(=O)(=O)c1cccc2c(N(C)C)cccc12` [Sample 26, N^2 -dansyl-N-isopropyl-L-argininamide], for which the IC (2-fold clotting time) stood at 1000 µM.

Regarding `CC(C)CNC(=O)[C@H](CCCNC(=N)N)NS(=O)(=O)c1cccc2c(N(C)C)cccc12` [Sample 27, N^2 -dansyl-N-isobutyl-L-argininamide], the IC (2-fold clotting time) is 100 µM.
